Data: paper PMC5323330 (SLAS discovery, 2016)

Assays:
SERCA = conditions: cited from earlier work
[1] = system: endoplasmic reticulum [Ca2+] in HEK293 cells expressing D1ER; test: D1ER calcium FRET sensor, ER calcium content in live cells; format: cell-based, human; conditions: 120 min time point
cytosolic calcium = conditions: cited from earlier work

Clc1ccccc1C(c1ccccc1)(c1ccccc1)n1ccnc1 [Clotrimazole, clotrimazole]
SERCA function, earlier report (SERCA): inhibit SERCA function

Clc1ccc(COC(Cn2ccnc2)c2ccc(Cl)cc2Cl)c(Cl)c1 (stereo not drawn) [Miconazole]
ER calcium depletion (decreased D1ER FRET) [1]: largest amount of ER calcium depletion

Oc1cc(Cl)ccc1Oc1ccc(Cl)cc1Cl [triclosan]
cytosolic calcium, earlier report (cytosolic calcium): increase cytosolic calcium
